Results from patent publication US20140303092A1 (CHIMERIX, INC., priority 2011, published 2014).

How the values were obtained:
[1] = Study HDP-CDV-201 post hoc analysis of preemptive therapy with anti-CMV STOC during follow-up; format: in vivo, human (HCT recipients)
Protocol: Subjects who developed CMV infection or disease at any time during the up to 11-week treatment period (through approximately 100 days posttransplant) were discontinued from study treatment (i.e., HDP-CDV or placebo) and followed for a period of 4 weeks, while subjects who completed the treatment period were followed for a period of 8 weeks. After study treatment was discontinued, subjects were treated with PrT for CMV infection/disease.
Among the study population (N=230 subjects), subjects who received STOC for PrT, defined as receiving at least one of GCV, vGCV, FOS or IV CDV for the explicit treatment of CMV infection/disease during the follow-up (“FU”) period, were identified. […]
Baseline measures for clinical laboratory values were defined as the last value on or before the last day of study treatment. The maximal decrease in ANC was determined using the minimum value reported after the last day of study treatment. The maximal increase in serum creatinine was determined using the maximum value reported after the last day of study treatment. […]
AEs were counted if the onset day was after the last day of study treatment. […] P-values were determined using Fisher's exact test for binary data and an independent t-test (pooled) for continuous data.

[2] = Study HDP-CDV-106: safety and PK in subjects with impaired hepatic function; format: in vivo, human
Protocol: Subjects with moderate hepatic impairment and matched healthy control subjects with normal hepatic function were enrolled and dosed first in Cohort 1, each receiving a single 200 mg dose of HDP-CDV under fasting conditions. The safety, tolerability and PK data from these subjects was reviewed prior to initiating dosing in subjects with severe hepatic impairment in Cohort 2. The study was conducted at four centers in the USA. Up to approximately 24 male and female subjects were planned to be enrolled in this study, including 8 subjects with moderate hepatic impairment and 8 matched healthy control subjects in Cohort 1 and 8 subjects with severe hepatic impairment in Cohort 2. The severity of hepatic impairment was assessed according to the Child-Pugh-Turcotte (CPT) score. Assessments are as follows: CPT Class B (moderate impairment) has a score of 7 to 9 points; and Class C (severe impairment) has a score of >9 points. For the purposes of this study, Cohort 2 subjects were required to have a CPT score of 10 or 11.

[3] = rat, in vivo
Description: AME of ^14C-HDP-CDV Following Oral Administration to Bile Duct-Intact and Bile Duct-Cannulated Rats. In order to more fully define the CYP enzymes involved in HDP-CDV elimination, the disposition and metabolism of ^14C-radiolabeled-HDP-CDV was studied in bile-duct cannulated rats either with or without pretreatment with the broad-spectrum CYP inhibitor aminobenzotriazole (ABT). This study has completed the in-life phase and sample analysis is ongoing.

[4] = tested on: human liver microsomes and recombinant human CYP enzymes; assay: Study HDP-CDV-NCA-049: in vitro CYP reaction phenotyping, liver microsomes; format: in vitro ADME; conditions: liver microsomes from multiple species, previous studies
Description: This study is expected to definitively quantify the major human metabolites arising from specific CYP enzymes and inform the need for a clinical DDI study investigating the effect of inhibition of these CYP enzymes on the PK of HDP-CDV.

[5] = Study HDP-CDV-201: GVHD reported as AE, weekly stage and grade, logistic regression versus dose; set-up: species or system human (HSCT recipients); conditions: human, in vivo
Protocol: Because of the increased frequency of reports of acute GVHD in the BIW Cohorts of Study HDP-CDV-201, an in-depth analysis of reported GVHD was conducted. This analysis includes data from the following sources: Adverse events as reported in the eCRF, including GVHD and GI events; Weekly GVHD assessments (by stage, organ, and grade) as reported by the investigators on the GVHD module of the eCRF. […]
For all subjects, the sites were instructed to record the presence or absence of GVHD, and stage and grade of GVHD, if present, at each visit on a separate eCRF page. […] Stage and grade of GVHD were evaluated per the NIH consensus guidelines (Przepiorka D, et al. Consensus conference on acute GVHD grading. Bone Marrow Transplant. 1995; 15(6): 825-828), which focus on the intensity of symptoms or laboratory abnormalities associated with GVHD (for example, the staging of GVHD of the intestine is based on the volume of diarrhea). […]

[6] = mouse, in vivo

CCCCCCCCCCCCCCCCOCCCOP(=O)(O)COC(CO)Cn1ccc(N)nc1=O (centres unmarked) [HDP-CDV]
rate of preemption ([1]; 100 mg twice-weekly (11/50)): 22.0%
incidence of preemptive therapy with anti-CMV STOC ([1]; four cohorts ≧100 mg HDP-CDV per week (38 of 146)): 26.0%
effect of hepatic impairment on percentage bound to plasma protein ([2]; human, in vivo): did not affect
need for dose adjustment in hepatic disease ([2]; moderate or severe hepatic disease): no HDP-CDV dose adjustment is warranted
administered radioactivity excreted in bile [3]: ~8%
administered radioactivity excreted in feces [3]: ~57%
administered radioactivity excreted in urine [3]: approximately 30%
radioactivity excreted in bile [3]: 3%
radioactivity excreted in feces [3]: 55%
radioactivity excreted in urine [3]: 28%
recovery of radioactivity [3]: ≥ 90%
in vitro turnover [4]: low in vitro turnover
overall frequency of GVHD [5]: 44 to 59%
ALT increases in individual animals [6]: up to 5 fold
